Measured values reported in patent publication US20240335486A1, “COMPOSITION FOR REARING ORGANISM BELONGING TO ORDER DECAPODA AND COMPOSITION FOR PREVENTING OR TREATING INFECTION IN DECAPODS” (SUMITOMO CHEMICAL COMPANY, LIMITED, priority 2021, published 2024).

Key:
Assay in all cases: Antibacterial activity of lactic acid cell culture products (plate culture, filter paper disk)
Format in all cases: cell-based
[1] = test system: V. nigripulchritudo TUMSAT-OK1 strain; details: Vibrio nigripulchritudo on Marine agar; disk with 20 μL culture filtrate (ampicillin 100 μg/mL); 25° C., 24 hours; read-out: diameter of the growth-inhibitory zone
Description: (§1) Examination was performed on whether the cell culture products of NITE BP-03199, NITE BP-03200, and NITE BP-03201 have antibacterial activity to Vibrio bacteria. The V. parahaemolyticus TUMSAT-D6 strain (AHPND strain), V. nigripulchritudo TUMSAT-OK1 strain, and V. pengeicida TUMSAT-OG1 strain were used as Vibrio bacteria.
(§2) With reference to FIG. 4, the experimental method will be described. With a bacteria spreader, 100 μL of a bacterial solution 11 of a Vibrio bacterium (approximately 10^8 cfu/mL) was smeared on agar medium 12. The agar medium used was Marine agar (Difco). A filter paper disk 15 was impregnated with 20 μL of a lactic acid bacterial culture filtrate 13, and placed on the agar medium with a Vibrio bacterium smeared thereon. The lactic acid bacterial culture filtrate (cell culture product) was a solution obtained through a process that any lactic acid bacterium of NITE BP-03199, NITE BP-03200, and NITE BP-03201 was cultured with MRS Broth at a temperature of 30° C. and the culture supernatant was filtered through a filter having a pore size of 0.22 μm. The turbidity of each lactic acid bacterial culture solution at a wavelength of 600 nm was approximately 10 OD. The agar medium with filter paper disk 15 placed thereon was subjected to culture at 25° C. for 24 hours, and the diameter (mm) of a growth-inhibitory zone 14 was measured. Each numerical value shown in Table 7 indicates the diameter (mm) of the growth-inhibitory zone. A filter paper disk was impregnated with medium for lactic acid bacteria (MRS Broth) as a negative control, and another one was impregnated with the antibiotic ampicillin (100 μg/mL) as a positive control.

[2] = test system: V. parahaemolyticus TUMSAT-D6 strain (AHPND strain); details: Vibrio parahaemolyticus on Marine agar; disk with 20 μL culture filtrate (ampicillin 100 μg/mL); 25° C., 24 hours; read-out: diameter of the growth-inhibitory zone
Description: as §1, §2

[3] = test system: V. pengeicida TUMSAT-OG1 strain; details: Vibrio penaeicida on Marine agar; disk with 20 μL culture filtrate (ampicillin 100 μg/mL); 25° C., 24 hours; read-out: diameter of the growth-inhibitory zone
Description: as §1, §2

CC1(C)S[C@@H]2[C@H](NC(=O)[C@H](N)c3ccccc3)C(=O)N2[C@H]1C(=O)O [Ampicillin, ampicillin] showed a zone of inhibition at 100 µg/mL [1] of 29 mm, a zone of inhibition at 100 µg/mL [2] of 28 mm and a zone of inhibition at 100 µg/mL [3] of 37 mm.
